Test results from PubChem BioAssay (NCI).
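Tested at 5 concentrations; 48 h exposure; 96-well plates; endpoints linearly interpolated, else capped at highest concentration. The concentration for 50% growth inhibition is given as GI50. TGI marks complete inhibition of growth.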

How the values were obtained:
Assay in all cases: growth of human tumour cells (NCI), 48 h
HT29 colon = tested on: HT29 colon
A498 renal = tested on: A498 renal
SNB-75 CNS = tested on: SNB-75 CNS
HL-60(TB) leukemia = tested on: HL-60(TB) leukemia
NCI-H460 lung = tested on: NCI-H460 lung
NCI-H522 lung = tested on: NCI-H522 lung
786-0 renal = tested on: 786-0 renal
SF-295 CNS = tested on: SF-295 CNS
T-47D breast = tested on: T-47D breast
M14 melanoma = tested on: M14 melanoma
UACC-257 melanoma = tested on: UACC-257 melanoma
SR leukemia = tested on: SR leukemia
MCF7 breast = tested on: MCF7 breast
HOP-92 NSCLC = tested on: HOP-92 NSCLC
LOX IMVI melanoma = tested on: LOX IMVI melanoma
SNB-19 CNS = tested on: SNB-19 CNS
CCRF-CEM leukemia = tested on: CCRF-CEM leukemia
U251 CNS = tested on: U251 CNS
SK-MEL-5 melanoma = tested on: SK-MEL-5 melanoma
OVCAR-8 ovarian = tested on: OVCAR-8 ovarian
HCC-2998 colon = tested on: HCC-2998 colon
EKVX NSCLC = tested on: EKVX NSCLC
SF-268 CNS = tested on: SF-268 CNS
MOLT-4 leukemia = tested on: MOLT-4 leukemia
DU-145 prostate = tested on: DU-145 prostate
NCI-H23 lung = tested on: NCI-H23 lung
SK-MEL-2 melanoma = tested on: SK-MEL-2 melanoma
HOP-62 NSCLC = tested on: HOP-62 NSCLC
CAKI-1 renal = tested on: CAKI-1 renal
MDA-MB-231 breast = tested on: MDA-MB-231 breast
OVCAR-3 ovarian = tested on: OVCAR-3 ovarian
SK-MEL-28 melanoma = tested on: SK-MEL-28 melanoma
K-562 leukemia = tested on: K-562 leukemia
ACHN renal = tested on: ACHN renal
COLO 205 colon = tested on: COLO 205 colon
OVCAR-5 ovarian = tested on: OVCAR-5 ovarian
NCI-H226 lung = tested on: NCI-H226 lung
TK-10 renal = tested on: TK-10 renal
A549 NSCLC = tested on: A549 NSCLC
HCT-15 colon = tested on: HCT-15 colon
SN12C renal = tested on: SN12C renal
KM12 colon = tested on: KM12 colon
UACC-62 melanoma = tested on: UACC-62 melanoma
SF-539 CNS = tested on: SF-539 CNS
PC-3 prostate = tested on: PC-3 prostate
SK-OV-3 ovarian = tested on: SK-OV-3 ovarian
MALME-3M melanoma = tested on: MALME-3M melanoma
RPMI-8226 leukemia = tested on: RPMI-8226 leukemia
HS 578T breast = tested on: HS 578T breast
SW-620 colon = tested on: SW-620 colon
BT-549 breast = tested on: BT-549 breast
HCT-116 colon = tested on: HCT-116 colon
RXF 393 renal = tested on: RXF 393 renal
NCI/ADR-RES ovarian = tested on: NCI/ADR-RES ovarian
IGROV1 ovarian = tested on: IGROV1 ovarian
OVCAR-4 ovarian = tested on: OVCAR-4 ovarian
UO-31 renal = tested on: UO-31 renal
MDA-MB-435 = tested on: MDA-MB-435

O=C(CCCCCCc1nc2ccc(Br)cc2[nH]1)NO
GI50 (HT29 colon): 291 nM
GI50 (A498 renal): 723 nM
TGI (A498 renal): 2100 nM
GI50 (SNB-75 CNS): 419 nM
TGI (SNB-75 CNS): > 100000 nM
GI50 (HL-60(TB) leukemia): 461 nM
TGI (HL-60(TB) leukemia): > 100000 nM
GI50 (NCI-H460 lung): 386 nM
TGI (NCI-H460 lung): 10600 nM
GI50 (NCI-H522 lung): 134 nM
TGI (NCI-H522 lung): 859 nM
GI50 (786-0 renal): 1030 nM
TGI (786-0 renal): 10700 nM
GI50 (SF-295 CNS): 471 nM
TGI (SF-295 CNS): 2840 nM
GI50 (T-47D breast): 230 nM
TGI (T-47D breast): > 100000 nM
GI50 (M14 melanoma): 340 nM
TGI (M14 melanoma): 7510 nM
GI50 (UACC-257 melanoma): 354 nM
TGI (UACC-257 melanoma): 7170 nM
GI50 (SR leukemia): 148 nM
TGI (SR leukemia): > 100000 nM
GI50 (MCF7 breast): 425 nM
TGI (MCF7 breast): > 100000 nM
GI50 (HOP-92 NSCLC): 241 nM
TGI (HOP-92 NSCLC): 905 nM
GI50 (LOX IMVI melanoma): 396 nM
TGI (LOX IMVI melanoma): 1550 nM
GI50 (SNB-19 CNS): 689 nM
TGI (SNB-19 CNS): > 30000 nM
GI50 (CCRF-CEM leukemia): 405 nM
TGI (CCRF-CEM leukemia): > 100000 nM
GI50 (U251 CNS): 387 nM
TGI (U251 CNS): 4620 nM
GI50 (SK-MEL-5 melanoma): 328 nM
TGI (SK-MEL-5 melanoma): 1380 nM
GI50 (OVCAR-8 ovarian): 275 nM
TGI (OVCAR-8 ovarian): 16000 nM
GI50 (HCC-2998 colon): 777 nM
TGI (HCC-2998 colon): 3080 nM
GI50 (EKVX NSCLC): 1550 nM
TGI (EKVX NSCLC): 97100 nM
GI50 (SF-268 CNS): 670 nM
TGI (SF-268 CNS): 3300 nM
GI50 (MOLT-4 leukemia): 342 nM
TGI (MOLT-4 leukemia): > 100000 nM
GI50 (DU-145 prostate): 621 nM
TGI (DU-145 prostate): 5840 nM
GI50 (NCI-H23 lung): 507 nM
TGI (NCI-H23 lung): 4890 nM
GI50 (SK-MEL-2 melanoma): 279 nM
TGI (SK-MEL-2 melanoma): 3870 nM
GI50 (HOP-62 NSCLC): 632 nM
TGI (HOP-62 NSCLC): 14600 nM
GI50 (CAKI-1 renal): 461 nM
TGI (CAKI-1 renal): 1540 nM
GI50 (MDA-MB-231 breast): 824 nM
TGI (MDA-MB-231 breast): 25000 nM
GI50 (OVCAR-3 ovarian): 313 nM
TGI (OVCAR-3 ovarian): 1610 nM
GI50 (SK-MEL-28 melanoma): 703 nM
TGI (SK-MEL-28 melanoma): 2750 nM
GI50 (K-562 leukemia): 357 nM
TGI (K-562 leukemia): > 100000 nM
GI50 (ACHN renal): 671 nM
TGI (ACHN renal): 3410 nM
GI50 (COLO 205 colon): 975 nM
TGI (COLO 205 colon): 5070 nM
GI50 (OVCAR-5 ovarian): 568 nM
TGI (OVCAR-5 ovarian): 22300 nM
GI50 (NCI-H226 lung): 1650 nM
TGI (NCI-H226 lung): 7370 nM
GI50 (TK-10 renal): 596 nM
TGI (TK-10 renal): 5700 nM
GI50 (A549 NSCLC): 578 nM
TGI (A549 NSCLC): 11300 nM
GI50 (HCT-15 colon): 1690 nM
TGI (HCT-15 colon): > 86500 nM
GI50 (SN12C renal): 1300 nM
TGI (SN12C renal): > 35500 nM
GI50 (KM12 colon): 377 nM
TGI (KM12 colon): 4180 nM
GI50 (UACC-62 melanoma): 189 nM
TGI (UACC-62 melanoma): 1170 nM
GI50 (SF-539 CNS): 970 nM
TGI (SF-539 CNS): 31300 nM
GI50 (PC-3 prostate): 796 nM
TGI (PC-3 prostate): > 100000 nM
GI50 (SK-OV-3 ovarian): 628 nM
TGI (SK-OV-3 ovarian): 3520 nM
GI50 (MALME-3M melanoma): 203 nM
TGI (MALME-3M melanoma): 813 nM
GI50 (RPMI-8226 leukemia): 411 nM
TGI (RPMI-8226 leukemia): > 100000 nM
GI50 (HS 578T breast): 331 nM
TGI (HS 578T breast): 3210 nM
GI50 (SW-620 colon): 266 nM
TGI (SW-620 colon): 1040 nM
GI50 (BT-549 breast): 1690 nM
TGI (BT-549 breast): 32300 nM
GI50 (HCT-116 colon): 202 nM
TGI (HCT-116 colon): 1030 nM
GI50 (RXF 393 renal): 240 nM
TGI (RXF 393 renal): 813 nM
GI50 (NCI/ADR-RES ovarian): 216 nM
TGI (NCI/ADR-RES ovarian): 1870 nM
GI50 (IGROV1 ovarian): 523 nM
TGI (IGROV1 ovarian): 2450 nM
GI50 (OVCAR-4 ovarian): 2430 nM
TGI (OVCAR-4 ovarian): > 100000 nM
GI50 (UO-31 renal): 433 nM
TGI (UO-31 renal): 5220 nM
GI50 (MDA-MB-435): 277 nM
TGI (MDA-MB-435): 1380 nM
